This is an account of results in US6812223B2, “Crystalline glucosamine sulfate metal salts and processes for preparing the same” (Nicholas Piramal India Limited, priority 2000, dated 2004).

A short description of the data set: Estimation of metal content in the mixed glucosamine sulphate metal salt (Inductively Coupled Plasma Method). The data set is classed as physicochemical. Particulars: ICP; for Potassium content: measured at 766.491 nm; for Sodium content: measured at 589.592 nm. The procedure:
Estimation of Metal Content in the Mixed Glucosamine Sulphate Metal Salt The sodium content in the mixed glucosamine sulphate sodium salt or the potassium content in the mixed glucosamine sulphate potassium salt respectively is estimated using Inductively Coupled Plasma Method. The sodium content was measured at 589.592 nm and the potassium content was measured at 766.491 nm. [table]

For the substance “Glucosamine Sulphate Potassium Salt (Low Potassium Content) [Example 2]”, the Potassium content is on record as 7.16%. Moreover, the Potassium content (listed as compound I (M+K)) is 7.16%.
Turning to “Glucosamine Sulphate Sodium Salt (Low Sodium Content) [Example 1]”, the Sodium content is 4.22%. In addition, the Sodium content (listed as compound I (M=Na)) was 4.22%.
